{"source": "a melting point compilation (Tetko et al.; mined from patent text by program, amines drawn as free bases though some values may be those of a salt)"}
{"units": {"melting point": "°C"}}
{"smiles": "Clc1nccc(-c2ccc(Cl)c(Cl)c2)n1", "melting point": "126 to 127"}
{"smiles": "CS(=O)(=O)c1ccc(Oc2cc(OCc3ccccc3)c3[nH]c(C(=O)O)cc3c2)cc1", "melting point": "232 to 233"}
{"smiles": "Cc1ccc(C2CCN(C(=O)CCC(=O)c3ccc4c(c3)CN(C(C)C)CC4)CC2)cc1", "melting point": "78 to 80"}
{"smiles": "O=C(c1ccc(-c2cc(Cl)ccc2OCc2ccccc2)cc1C(F)(F)F)N1CCCC1", "melting point": "143 to 144"}
{"smiles": "O=C(NC1CCN(CCCOc2ccc3c4c(c(=O)oc3c2)CCCC4)CC1)c1ccccc1O", "melting point": "209 to 211"}
{"smiles": "Cc1cc(C)c2nccn2n1", "melting point": "70 to 74"}
{"smiles": "Cc1c(Cl)cc(NC(=O)CCl)c(O)c1Cl", "melting point": 149}
{"smiles": "O=C1CC(CO)N1Cc1ccccc1", "note": "(stereo not given)", "melting point": 94}
{"smiles": "CC(=O)c1cc2c(cc1NC(=O)c1coc3ccccc13)OCO2", "melting point": "144 to 145"}
{"smiles": "Fc1cccc(CN2CCN=C2S)c1", "melting point": "186 to 188"}
{"smiles": "CN(C)CCOc1ccc2sc(C(=O)Nc3ccccc3N)cc2c1", "melting point": "191 to 193"}
{"smiles": "Cc1cccc(N2Cc3nc(C(=O)O)nn3-c3ccccc32)c1C", "melting point": "195 to 197"}
{"smiles": "CN(C(=O)CN1C(=O)c2ccccc2S1(=O)=O)c1ccccc1", "melting point": "205 to 206"}
{"smiles": "CCOC(=O)c1cccc(-c2ccc3c(c2)C(=O)CCC3)c1", "melting point": "89 to 90"}
{"smiles": "Cc1cc2c(cc1C)C(=O)C(CN1CCC3(CC1)C(=O)NCN3c1ccccc1)CC2", "note": "(stereo not given)", "melting point": "182 to 183"}
{"smiles": "Cc1nc2c(O)c(CCC(=O)c3cccs3)c(C(=O)N(C)C)cn2c1C", "melting point": 234}
{"smiles": "CCCCCCCCCCC(NC(=O)NC12CC3CC(CC(C3)C1)C2)C(=O)OC", "note": "(stereo not given)", "melting point": 75}
{"smiles": "CC(C)(Oc1ccc(OCc2cnc(-c3ccc(C(F)(F)F)cc3)nc2C2CC2)c(F)c1)C(=O)O", "melting point": 178}
{"smiles": "COc1c(-c2ccc3cc(NS(C)(=O)=O)ccc3c2)cc(-n2ccc(=O)[nH]c2=O)cc1-c1ccc(C)o1", "melting point": "174 to 178"}
{"smiles": "O=C1CC(ON(Cc2ccccc2)Cc2ccccc2)C(=O)N1C1CCCCC1", "note": "(stereo not given)", "melting point": "75 to 77"}
{"smiles": "CC[C@H](C)[C@H](OCc1ccccc1)[C@H]1[C@H]([N+](=O)[O-])[C@H](C2CCCCC2)N[C@@H]1C(=O)O", "melting point": "194 to 196"}
{"smiles": "O=C(O)[C@H](Cc1ccc([N+](=O)[O-])cc1)NC1=CC(=O)C12CCCCC2", "melting point": 120}
{"smiles": "Cc1cc2c(c(C)c1O)C(C)CN2C(=O)C(C)C", "note": "(stereo not given)", "melting point": "123 to 125"}
{"smiles": "CC(C)(C)c1cc(-c2nc3n(c2CO)CCS3)cc(C(C)(C)C)c1O", "melting point": "227 to 229"}
{"smiles": "O=C(c1ccccc1)N1Cc2c(-c3noc(C4CC4)n3)ncn2-c2cccc(F)c21", "melting point": "234 to 236"}
{"smiles": "CN1Cc2c(Cl)ncn2-c2ccc(F)cc2C1=O", "melting point": "217 to 218"}
{"smiles": "O=C(O)Cc1ccc(OCCNC(=O)C2Cc3ccccc3N2S(=O)(=O)c2ccc(-c3ccc(Cl)cc3)c(C(F)(F)F)c2)cc1", "note": "(stereo not given)", "melting point": 92}
{"smiles": "CCOC(=O)C1CCCN(S(=O)(=O)c2ccc3[nH]c(=O)c4cccc5c4c3c2C5)C1", "note": "(stereo not given)", "melting point": "215 to 218"}
{"smiles": "NC(CO)(CO)C(=O)O", "melting point": "109 to 112"}
{"smiles": "CCCCn1nc(CCc2cccs2)nc1Cc1ccc(-c2ccccc2-c2nnn[nH]2)nc1", "melting point": "116 to 118"}
{"smiles": "CSc1cn(C)c2sccc2c1=O", "melting point": "138 to 140"}
{"smiles": "COc1ccc(/C=C/c2ccc3c(=O)[nH]ncc3c2)cc1", "melting point": "280 to 289"}
{"smiles": "Nc1cnc(F)c(Br)c1", "melting point": "91 to 92"}
{"smiles": "CNC(=O)CC(O)(c1ccc(Br)cc1)c1cccnc1", "note": "(stereo not given)", "melting point": "188 to 191"}
{"smiles": "Cc1cc(CNC(=O)c2cc(N3CCN(Cc4ccc(F)cc4)C3=O)n[nH]2)n[nH]1", "melting point": "254 to 255"}
{"smiles": "Cc1c(Cc2cc(Cl)cc(Cl)c2)c(C(C)C)nn1CCO", "melting point": "77 to 78"}
{"smiles": "CC(=O)NNc1ccc(N2C(=S)SCC2(O)c2ccccc2)cc1", "note": "(stereo not given)", "melting point": "80 to 84"}
{"smiles": "Nc1cc(Cl)c(Br)cc1[N+](=O)[O-]", "melting point": "185 to 195"}
{"smiles": "C=CCOc1cc(NC(=O)C2=C(C(=O)N(C)C)CCCC2)ccc1Cl", "melting point": "129 to 131"}
{"smiles": "C[C@]12CCC(=O)N[C@@H]1CCc1cc(-c3ccccc3Cl)ccc12", "melting point": "189 to 191"}
{"smiles": "CC(C)(C)c1ccc(CCCCC(=O)CC2CCCCC2)cc1NC(=O)CC1c2ccccc2Oc2ccccc21", "melting point": "126 to 127"}
{"smiles": "O=C(O)C(=O)c1ccc(OCCCCCCOc2ccccc2)cc1", "melting point": "121 to 122"}
{"smiles": "Nc1nc(Cl)c(Cl)nc1C=Nc1ccc(Cl)cc1", "melting point": "179 to 182"}
{"smiles": "CC(CN1CCCC1)N1c2ccccc2Sc2ccc(C(=O)NCC3CCC3)cc21", "note": "(racemic)", "melting point": 133}
{"smiles": "COC(=O)c1ccc2cc(C(=O)c3ccc4c(c3)C3(C)C5(C)CCC(C5)C3(C)O4)ccc2c1", "note": "(stereo not given)", "melting point": 146}
{"smiles": "COc1cccc(Cc2cnc(NCCSCc3nccs3)[nH]c2=O)c1", "melting point": "104 to 106"}
{"smiles": "Cc1c(-c2ccccc2)oc2c(CC(=O)O)cccc2c1=O", "melting point": "191 to 192"}
{"smiles": "COc1cc2[nH]c(=O)c(=O)n(C)c2cc1OC", "melting point": 308}
{"smiles": "CC(C)(C)n1cc(C(=O)O)c(=O)c2cc(F)c(F)cc21", "melting point": "> 260"}
{"smiles": "CCCCCCCN(CCCCCSc1nc2c([nH]1)CCCC2)C(=O)Nc1ccc(F)cc1F", "melting point": "98 to 100"}
{"smiles": "O=C(c1cccs1)c1cnn2c(-c3ccc(F)c(N(C(=O)c4ccccc4Cl)C(=O)c4ccccc4Cl)c3)ccnc12", "melting point": "150 to 151"}
{"smiles": "COc1cc(C)cc(C(O)=S)c1OC", "melting point": "139 to 141"}
{"smiles": "CN1C(=N)N(c2ccc(Cl)cc2)CC1=O", "melting point": "182 to 184"}
{"smiles": "CCOC=Nc1noc(-c2cc(C(C)(C)C)c(O)c(C(C)(C)C)c2)n1", "melting point": "159 to 161"}
{"smiles": "CCC(=O)OC1(C(=O)CO)CCC2C3CC(C)C4=CC(=O)CCC4(C)C3C(O)CC21C", "note": "(stereo not given)", "melting point": 197}
{"smiles": "COc1ccc(CN(C)CCCOc2ccc(S(=O)(=O)c3c(C(C)C)n(C)c4ccccc34)cc2)cc1OC", "melting point": 105}
{"smiles": "COc1cc2c(cc1O)CCN(Cc1cc(F)cc(F)c1)C2", "melting point": "110 to 111"}
{"smiles": "O=Cc1cn(CCCCl)c2ccc(Cl)cc12", "melting point": "107 to 108"}
{"smiles": "CC(C)(C)OC(=O)NC1CCN(C/C=C\\CC(c2ccccc2)c2ccccc2)CC1", "melting point": "105 to 108"}
{"smiles": "CN(C)CN=c1[nH]c2cnccc2s1", "melting point": "125 to 127"}
{"smiles": "Cc1ccc(Oc2ccc(Br)cc2O)c(O)c1", "melting point": "95 to 97"}
{"smiles": "O=C(Nc1cc(C(F)(F)F)cc(C(F)(F)F)c1)C1C(=O)C2CCC(C2)C1=O", "note": "(stereo not given)", "melting point": "88 to 90"}
{"smiles": "CC(C)N(CCC(CC(=O)N1CCCCC1)(C(=O)N(C)C)c1ccccc1)C(C)C", "note": "(stereo not given)", "melting point": "142 to 145"}
{"smiles": "NCC(CC(=O)O)C1CCC1", "note": "(stereo not given)", "melting point": "115 to 117"}
{"smiles": "COCCOC(=O)CS(=O)C(C)c1ccc(-c2ccccc2F)cc1", "note": "(stereo not given)", "melting point": "65 to 67"}
{"smiles": "CCC(O)c1ccc(Cl)c2nc3n(c12)CCCN3c1ccc(Cl)cc1C(F)(F)F", "note": "(stereo not given)", "melting point": "220 to 222"}
{"smiles": "Cc1cc(N(C)C)ccc1C=O", "melting point": "66 to 67"}
{"smiles": "COC(=O)CCCc1cc2nc(Cl)ccc2n1S(=O)(=O)c1ccc(C(C)(C)C)cc1", "melting point": 107}
{"smiles": "O=C(Nc1cc(-c2ccnc3c(C(=O)c4cccs4)cnn23)ccc1F)c1ccccc1Cl", "melting point": "166 to 168"}
{"smiles": "O=C(c1c[nH]c2ccc(Br)cc12)C(F)(F)F", "melting point": 254}
{"smiles": "O=Cc1cccnc1SCc1ccccc1", "melting point": "71.5 to 73"}
{"smiles": "CCOC(=O)c1cn(C2CC2)c2c(C)c(N3CCN(C)CC3)c(F)c(C)c2c1=O", "melting point": "146 to 147"}
{"smiles": "COC(=O)c1cc(O)cc(Cl)c1O", "melting point": 126}
{"smiles": "Nc1cccc(C(=O)O)c1NCc1ccccc1Cl", "melting point": "203 to 204"}
{"smiles": "CC1(C(O)=C(Cc2ccc(Cl)cc2Cl)n2cncn2)COCOC1", "melting point": "190 to 192"}
{"smiles": "CC(=O)c1ccc(N2CCC(N(C)Cc3ccc(F)cc3)CC2)cc1", "melting point": 133}
{"smiles": "COC(=O)c1cn(-c2ccccc2Oc2ccc(C)cc2O)nn1", "melting point": "153 to 155"}
{"smiles": "CCCCCCCCCCCCCCCCCCOC1=CC(OCCCOc2ccc(C(C)(C)C)cc2)(N(CC(=O)O)CC(=O)O)CC=C1", "note": "(stereo not given)", "melting point": "99 to 101"}
{"smiles": "CCOC(=O)c1sc2cc(COc3cccnc3)ccc2c1S(=O)c1cccc(OC)c1", "note": "(stereo not given)", "melting point": "113 to 115"}
{"smiles": "CC(C)n1nc(-c2c(NCc3ccccn3)nc(N)nc2-c2ccc(F)cc2)ccc1=O", "melting point": "210 to 212"}
{"smiles": "CC(NC(=O)Cc1cc(F)cc(F)c1)C(=O)NC1(F)NC(=O)Cc2ccccc21", "note": "(stereo not given)", "melting point": "195 to 200"}
{"smiles": "CNC(=O)ON=C1N=C(C2CCCCC2)C(C)(C)S1", "melting point": "158 to 160"}
{"smiles": "CCOC(=O)Cc1ccc(-c2cn3ccccc3n2)cc1", "melting point": "92 to 93"}
{"smiles": "O=C1Nc2cccnc2N(C(=O)N2CCCC(CCN3CCCC3)C2)c2cc(Cl)ccc21", "note": "(stereo not given)", "melting point": "136 to 139"}
{"smiles": "COc1cc2nc(N3CCN(C(=S)Nc4ccccc4)CC3)nc(N)c2cc1OC", "melting point": "138 to 140"}
{"smiles": "CC(=NO)c1ccc(NS(C)(=O)=O)c(Oc2ccc(F)cc2F)c1", "melting point": "150 to 151"}
{"smiles": "O=[N+]([O-])c1ccc(-n2nc3c(c2O)-c2ccccc2CC3)nc1", "melting point": "226 to 227"}
{"smiles": "Cc1nc(N2CCN(CC3CC3(F)F)C2=O)sc1C(=O)NCc1cncs1", "note": "(stereo not given)", "melting point": "182 to 184"}
{"smiles": "Cn1c(=O)c(-c2ccc(Cl)cc2Cl)cc2c3cc(-c4nc(CC(=O)O)cs4)ccc3n(C)c21", "melting point": "234 to 239"}
{"smiles": "O=C(NNc1ccccc1C(F)(F)F)c1c(F)cccc1F", "melting point": "129 to 130"}
{"smiles": "CC(=O)Nc1ccc(OC2SCC(O)C(O)C2O)cn1", "note": "(stereo not given)", "melting point": 209}
{"smiles": "CC1(C)CCC(=O)Nc2cc(OCCCCCN3CCN(c4cccc(Cl)c4Cl)CC3)ccc21", "melting point": "128 to 130"}
{"smiles": "CC(C)C1NC(NC(=O)CCC2CCCCC2)C(=O)N(C)c2ccccc21", "note": "(stereo not given)", "melting point": "114 to 115"}
{"smiles": "CCN(CC)C(=O)c1cc2ccccc2c(-c2cccc(Cl)c2)n1", "melting point": 116}
{"smiles": "CC(C)(C)c1cc2c(c(C(C)(C)C)c1)OC(C(F)(F)F)C(C(=O)O)=C2", "note": "(stereo not given)", "melting point": "172 to 175"}
{"smiles": "O=C(Nc1ccccc1)C1=NOCCS1(=O)=O", "melting point": "206 to 207"}
{"smiles": "CCCC(=O)Nc1cccc(N(CCO)CCO)c1", "melting point": "88 to 90"}
{"smiles": "CCOC(=O)C(=Cc1ccccc1)S(=O)(=O)NC(C)(C)C", "melting point": "111 to 113"}
{"smiles": "Cc1ccc(S(=O)(=O)N2CCC[C@H]2C(=O)N[C@@H](Cc2ccc(OCCCN(C)Cc3ccccc3)cc2)C(=O)O)cc1", "melting point": "87 to 90"}
{"smiles": "CC(=O)S[C@@H](CCN1C(=O)CCC1=O)C(=O)O", "melting point": "110 to 112"}
